Laboratory results reported in ChEMBL document CHEMBL1201862, “PubChem BioAssay data set” (2004).
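All cell lines were grown in 96-well plates and treated with compound for 48 hours. Abbreviation: GI50, concentration required for 50% inhibition of growth.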 Activity calls are given as the source filed them. Rule as the data show it: active = GI50 up to about 1.1 µM and inactive = higher.

Experiments:
Test in all cases: DTP human tumour cell line panel, 48 h
ACHN = tested on: ACHN
UO-31 = tested on: UO-31
HCT-15 = tested on: HCT-15
COLO 205 = tested on: COLO 205
KM12 = tested on: KM12
DLD-1 = tested on: DLD-1
MOLT-4 = tested on: MOLT-4
SR = tested on: SR
SK-OV-3 = tested on: SK-OV-3
K562 = tested on: K562
HCT-116 = tested on: HCT-116
CAKI-1 = tested on: CAKI-1
A498 = tested on: A498
SF-539 = tested on: SF-539
Malme-3M = tested on: Malme-3M
NCI-H522 = tested on: NCI-H522
NCI-H226 = tested on: NCI-H226
MCF7 = tested on: MCF7
NCI/ADR-RES = tested on: NCI/ADR-RES

Structure (SMILES)	GI50 (ACHN)	GI50 (UO-31)	GI50 (HCT-15) [µM]	GI50 (COLO 205)	GI50 (KM12)	GI50 (DLD-1)	GI50 (MOLT-4)	GI50 (SR)	GI50 (SK-OV-3)	GI50 (K562)	GI50 (HCT-116)	GI50 (CAKI-1)	GI50 (A498)	GI50 (SF-539)	GI50 (Malme-3M)	GI50 (NCI-H522)	GI50 (NCI-H226)	GI50 (MCF7)	GI50 (NCI/ADR-RES)
C[Si](C)(C)C(Sc1ccccc1)(Sc1ccccc1)Sc1ccccc1	43 µM (inactive)	> 100 µM (inactive)	50.5	62.2 µM (inactive)	60.3 µM (inactive)	53.6 µM (inactive)	4.28 µM (inactive)	35.7 µM (inactive)	> 100 µM (inactive)	> 100 µM (inactive)	60.3 µM (inactive)	> 100 µM (inactive)	76.9 µM (inactive)	> 100 µM (inactive)					
CC(C)N(C(=O)c1cccc(C(=O)N(C(C)C)C(C)C)c1)C(C)C	> 100 µM (inactive)	> 100 µM (inactive)	> 100	> 100 µM (inactive)	> 100 µM (inactive)	> 100 µM (inactive)	> 100 µM (inactive)	20.1 µM (inactive)	> 100 µM (inactive)	> 100 µM (inactive)	> 100 µM (inactive)	> 100 µM (inactive)	> 100 µM (inactive)	> 100 µM (inactive)	> 100 µM (inactive)	> 100 µM (inactive)	> 100 µM (inactive)		
CCOC(=O)NC(=O)c1c[nH]c(=O)[nH]c1=O	> 100 µM (inactive)	> 100 µM (inactive)	> 100	> 100 µM (inactive)	> 100 µM (inactive)	> 100 µM (inactive)	> 100 µM (inactive)	> 100 µM (inactive)	> 100 µM (inactive)	> 100 µM (inactive)	> 100 µM (inactive)	> 100 µM (inactive)	> 100 µM (inactive)	> 100 µM (inactive)	> 100 µM (inactive)		> 100 µM (inactive)		
N#Cc1cccc(/C=N/N/C(N)=N/O)c1	31.7 µM (inactive)	49.1 µM (inactive)	68.5	> 100 µM (inactive)	52.7 µM (inactive)	53.2 µM (inactive)		48.1 µM (inactive)	27.5 µM (inactive)	41.2 µM (inactive)	> 100 µM (inactive)	17.1 µM (inactive)	33.3 µM (inactive)	> 100 µM (inactive)	85.1 µM (inactive)	21.6 µM (inactive)	56.1 µM (inactive)		
CN(C)c1ccc(/C=c2\sc3nnc(Cc4ccccc4)n3c2=O)cc1	75.3 µM (inactive)	> 100 µM (inactive)	20.2	> 10 µM (inactive)	> 10 µM (inactive)	> 10 µM (inactive)	> 10 µM (inactive)	> 10 µM (inactive)	> 10 µM (inactive)	> 10 µM (inactive)	17.1 µM (inactive)	> 10 µM (inactive)	> 10 µM (inactive)	> 10 µM (inactive)	> 10 µM (inactive)	> 10 µM (inactive)	> 10 µM (inactive)		
O=C(O)c1ccccc1/N=C/c1ccc(N(CCCl)CCCl)cc1		> 65.2 µM (inactive)	> 100	> 100 µM (inactive)	> 100 µM (inactive)	> 100 µM (inactive)	36.6 µM (inactive)		> 91.2 µM (inactive)	> 100 µM (inactive)	> 100 µM (inactive)	9.75 µM (inactive)	> 40.5 µM (inactive)	> 66.5 µM (inactive)	> 100 µM (inactive)	> 100 µM (inactive)		> 84.7 µM (inactive)	> 100 µM (inactive)
COc1cc2ccc(CC#N)cc2cc1OC	> 100 µM (inactive)	> 100 µM (inactive)			> 100 µM (inactive)	> 100 µM (inactive)	> 100 µM (inactive)	> 100 µM (inactive)	> 100 µM (inactive)	> 100 µM (inactive)		45.9 µM (inactive)	> 100 µM (inactive)	> 100 µM (inactive)	> 100 µM (inactive)		> 100 µM (inactive)		
CCCCN(CCCC)c1c([N+](=O)[O-])c(=O)nc2ccccn12	35.2 µM (inactive)	45.6 µM (inactive)	39.4	45.5 µM (inactive)	31.3 µM (inactive)	35.4 µM (inactive)	37.7 µM (inactive)	38.5 µM (inactive)	> 100 µM (inactive)	37.2 µM (inactive)	38.9 µM (inactive)	> 10 µM (inactive)	22.3 µM (inactive)	31.4 µM (inactive)	> 100 µM (inactive)	17.6 µM (inactive)	75.3 µM (inactive)		
CCOC(=O)CC(=O)ON(C)C(C)=O	> 100 µM (inactive)	> 100 µM (inactive)	> 100	> 100 µM (inactive)	> 100 µM (inactive)	> 100 µM (inactive)	> 100 µM (inactive)	> 100 µM (inactive)	> 100 µM (inactive)	> 100 µM (inactive)	> 100 µM (inactive)	> 100 µM (inactive)	> 100 µM (inactive)	> 100 µM (inactive)	> 100 µM (inactive)	> 100 µM (inactive)	> 100 µM (inactive)		
O=C(Oc1ccc(Cl)cc1[N+](=O)[O-])c1ccccc1	> 100 µM (inactive)	86.5 µM (inactive)	> 100	> 100 µM (inactive)	> 100 µM (inactive)	> 100 µM (inactive)	> 100 µM (inactive)	> 100 µM (inactive)	> 100 µM (inactive)	> 100 µM (inactive)	> 100 µM (inactive)		> 100 µM (inactive)	> 100 µM (inactive)	> 100 µM (inactive)		92.9 µM (inactive)		
CC(=O)N/C(=C\c1cccc([N+](=O)[O-])c1)c1nc2ccc3c(c2[nH]1)C(=O)c1ccccc1C3=O	4.37 µM (inactive)	3.62 µM (inactive)	13.9	> 78.2 µM (inactive)	7.57 µM (inactive)	12.2 µM (inactive)	8.04 µM (inactive)	6.97 µM (inactive)	13.6 µM (inactive)	23.9 µM (inactive)	17.9 µM (inactive)	11.7 µM (inactive)	22.8 µM (inactive)	42 µM (inactive)	> 74.8 µM (inactive)	9.89 µM (inactive)	> 100 µM (inactive)		
Brc1ccc2[nH]c3c(C4=NCCC4)nccc3c2c1		14.8 µM (inactive)	17	23.3 µM (inactive)	41.5 µM (inactive)	15.5 µM (inactive)	8.45 µM (inactive)		26.7 µM (inactive)	11.3 µM (inactive)	9.86 µM (inactive)	19.6 µM (inactive)		9.53 µM (inactive)	1.91 µM (inactive)	9.12 µM (inactive)	10.2 µM (inactive)	9.25 µM (inactive)	40 µM (inactive)
COc1ccc(O)c(C#N)c1C#N.COc1ccc(OC)c(C#N)c1C#N		> 100 µM (inactive)	> 100	> 100 µM (inactive)	> 100 µM (inactive)	> 100 µM (inactive)	> 100 µM (inactive)		> 100 µM (inactive)	> 100 µM (inactive)	> 100 µM (inactive)	> 100 µM (inactive)	> 100 µM (inactive)	> 100 µM (inactive)	> 100 µM (inactive)		> 100 µM (inactive)	> 100 µM (inactive)	> 100 µM (inactive)
CN(CC#N)C1CCCC[C@H]1O (stereo not given in full)	> 100 µM (inactive)	> 100 µM (inactive)	> 100	> 100 µM (inactive)	> 100 µM (inactive)	> 100 µM (inactive)	> 100 µM (inactive)	46.6 µM (inactive)	> 100 µM (inactive)	> 100 µM (inactive)	> 100 µM (inactive)	> 100 µM (inactive)	> 100 µM (inactive)	> 100 µM (inactive)	> 100 µM (inactive)	> 100 µM (inactive)	> 100 µM (inactive)		
CC(C)=CC1C(C(=O)O)C1(C)C (stereo not given) [CHRYSANTHEMIC ACID]		> 750 µM (inactive)	> 750	> 750 µM (inactive)	> 750 µM (inactive)	> 750 µM (inactive)	> 750 µM (inactive)		> 750 µM (inactive)	> 750 µM (inactive)	> 750 µM (inactive)	643 µM (inactive)	24 µM (inactive)	> 750 µM (inactive)	746 µM (inactive)	> 750 µM (inactive)	75 µM (inactive)	> 750 µM (inactive)	> 750 µM (inactive)
CC(C)Cc1ccc(C(C)/C=C2\CCC(CN3CCCC3)C2=O)cc1 (stereo not given)	11.7 µM (inactive)	15.9 µM (inactive)	4.06	4.5 µM (inactive)	2.77 µM (inactive)	2.55 µM (inactive)	2.67 µM (inactive)	1.76 µM (inactive)	19.6 µM (inactive)	3.91 µM (inactive)	4.13 µM (inactive)	13.6 µM (inactive)	21.6 µM (inactive)	5.81 µM (inactive)	20.4 µM (inactive)	1.31 µM (inactive)	18.1 µM (inactive)		
CNC(=O)OCc1c(CO)nc(SC)n1C		> 100 µM (inactive)	> 100	> 100 µM (inactive)	> 100 µM (inactive)	> 100 µM (inactive)	> 100 µM (inactive)		> 100 µM (inactive)	> 100 µM (inactive)	> 100 µM (inactive)	> 100 µM (inactive)	> 100 µM (inactive)	> 100 µM (inactive)	> 100 µM (inactive)	> 100 µM (inactive)	> 100 µM (inactive)	> 100 µM (inactive)	> 100 µM (inactive)
